Source: patent US11129829B2, “Methods for modulating splicing” (Skyhawk Therapeutics, Inc., priority 2019, dated 2021)
Where two headings read alike, the source gives them in different places.

Assays:
Assay type in all cases: cell-based
[1] = system: Target 2; assay: qPCR assay, Target 2 splicing potency (poison exon 12c inclusion); settings: for IC50: WT transcript; for EC50: poison exon E12c inclusion
Description: (§1) A-673 or SK-N-MC cells were treated with different concentrations of SMSM compounds or DMSO for 24 hours. After the first 16 hours, cells were treated with 100 ug/ml of cycloheximide (CHX) for 8 hours to inhibit protein translation and nonsense-mediated decay (NMD). Cells were lysed with RNA lysis buffer and RNAs were purified using standard methods. After cDNA synthesis, samples were analyzed by qPCR using target transcript specific Taqman primers/probes (FIGS. 7, 19, 20, and 29). Absolute copy numbers were determined using standard curves from G-block DNA fragments (FIGS. 8, 9, and 21). Relative gene expression was determined by comparing the gene expression in the presence of an SMSM and DMSO (FIGS. 10-16 and 22-28).

[2] = system: Target 1; assay: qPCR assay, Target 1 splicing potency (poison exons 7b and 7c inclusion); settings: for IC50: WT transcript
Description: as §1

[3] = system: A-673; assay: A-673 cell viability
[4] = system: FoxM1 A mRNA; assay: Splice EC50: FoxM1 A mRNA increase (exon excluded); settings: read-out: Splice EC50 (nM)^B
[5] = system: FoxM1 BC mRNA; assay: Splice IC50: FoxM1 BC mRNA decrease (exon included); settings: read-out: Splice IC50 (nM)^C
[6] = poison exon E7b inclusion, read-out: Target 1 Splicing Potency E7b EC50
[7] = poison exon E7c inclusion, read-out: Target 1 Splicing Potency E7c EC50
[8] = Homo sapiens, A673, Cell viability

Molecule	IC50 [1] [nM]	EC50 [1] [nM]	IC50 [2] [nM]	EC50 [2, 6] [nM]	EC50 [2, 7] [nM]	IC50 [3, 8] [nM]	EC50 [4] [nM]	IC50 [5] [nM]	IC50 ([3]; Cell viability) [nM]
CN(c1ccc(-c2cc(F)c(-c3cn[nH]c3)cc2O)nn1)[C@@H]1C[C@H]2CCC[C@@H](C1)N2 [SMSM 70807, 4-fluoro-2-(6-{methyl[(1R,3S,5S)-9-azabicyclo[3.3.1]nonan-3-yl]amino}pyridazin-3-yl)-5-(1H-pyrazol-4-yl)phenol]	50.8	540	46	168	162				
CN(c1ccc(-c2ccc(-c3ccn(C)c(=O)c3)cc2O)nn1)[C@H]1C[C@]2(C)CCC[C@](C)(C1)N2 [SMSM 70814, 4-[3-hydroxy-4-(6-{methyl[(1R,3S,5S)-1,5-dimethyl-9-azabicyclo[3.3.1]nonan-3-yl]amino}pyridazin-3-yl)phenyl]-1-methyl-1,2-dihydropyridin-2-one]	110		102	89.2	538				
CN(C)C(=O)c1cc2cc(O)c(-c3ccc(N(C)[C@@H]4C[C@H]5CCC[C@@H](C4)N5)nn3)cc2o1 [compound 295, 6-(6-(((1R,3S,5S)-9-azabicyclo[3.3.1]nonan-3-yl)(methyl)amino)pyridazin-3-yl)-5-hydroxy-N,N-dimethylbenzofuran-2-carboxamide]						251 to 500			
Oc1cc(-c2c[nH]nn2)ccc1-c1ccc(O[C@@H]2C[C@H]3CC[C@@H](C2)N3)nn1 [compound 253, 2-(6-(((1R,3S,5S)-8-azabicyclo[3.2.1]octan-3-yl)oxy)pyridazin-3-yl)-5-(1H-1,2,3-triazol-4-yl)phenol]						501 to 1000	251 to 500	251 to 500	
[2H]C([2H])([2H])n1ncc(-c2ccc(-c3ccc(N(C)[C@@H]4C[C@H]5CCC[C@@H](C4)N5)nn3)c(O)c2)cc1=O [compound 281]						< 10	< 10	< 10	
CN(c1ccc(-c2cc(F)c(-c3ccn(C)c(=O)c3)cc2O)nn1)[C@H]1C[C@]2(C)CCC[C@](C)(C1)N2 [SMSM 70815, 4-[2-fluoro-5-hydroxy-4-(6-{methyl[(1R,3S,5S)-1,5-dimethyl-9-azabicyclo[3.3.1]nonan-3-yl]amino}pyridazin-3-yl)phenyl]-1-methyl-1,2-dihydropyridin-2-one]	116	238	105	59.8	423				
COc1cc(-c2ccc(-c3ccc(N(C)[C@H]4C[C@]5(C)CCC[C@](C)(C4)N5)nn3)c(O)c2)cnn1 [SMSM 70820, 5-(6-methoxypyridazin-4-yl)-2-(6-{methyl[(1R,3S,5S)-1,5-dimethyl-9-azabicyclo[3.3.1]nonan-3-yl]amino}pyridazin-3-yl)phenol]	166	530	142	111	627				
CNC(=O)/C=C/c1cc(O)c(-c2ccc(N(C3CC3)[C@H]3C[C@]4(C)CCC[C@](C)(C3)N4)nn2)cc1F [SMSM 70826, (2E)-3-[4-(6-{cyclopropyl[(1R,3S,5S)-1,5-dimethyl-9-azabicyclo[3.3.1]nonan-3-yl]amino}pyridazin-3-yl)-2-fluoro-5-hydroxyphenyl]-N-methylprop-2-enamide]	337	304	177	257	887				
[2H]C([2H])([2H])n1ccc(-c2ccc(-c3ccc(N(C)[C@@H]4C[C@H]5CCC[C@@H](C4)N5)nn3)c(O)c2)cc1=O [compound 284, 4-(4-(6-(((1R,3S,5S)-9-azabicyclo[3.3.1]nonan-3-yl)(methyl)amino)pyridazin-3-yl)-3-hydroxyphenyl)-1-(methyl-d3)pyridin-2(1H)-one]						< 10	> 1000	< 10	
CNC(=O)/C=C/c1cc(O)c(-c2ccc(N(C3CC3)[C@H]3C[C@]4(C)CC[C@](C)(C3)N4)nn2)cc1F [SMSM 70823, (E)-3-(4-(6-(cyclopropyl((1R,3S,5S)-1,5-dimethyl-8-azabicyclo[3.2.1]octan-3-yl)amino)pyridazin-3-yl)-2-fluoro-5-hydroxyphenyl)-N-methylacrylamide]	463	344	328	170	898				
CN(c1ccc(-c2ccc(-c3cnn(CF)c3)cc2O)nn1)[C@H]1C[C@]2(C)CC[C@](C)(C1)N2 [SMSM 70810, 2-(6-{[(1R,3S,5S)-1,5-dimethyl-8-azabicyclo[3.2.1]octan-3-yl](methyl)amino}pyridazin-3-yl)-5-[1-(fluoromethyl)-1H-pyrazol-4-yl]phenol]	220	418	236	180	1050				
CNC(=O)/C=C/c1cc(O)c(-c2ccc(N(C)[C@@H]3C[C@H]4CCC[C@@H](C3)N4)nn2)cc1F [SMSM 70808, (2E)-3-{4-[6-({9-azabicyclo[3.3.1]nonan-3-yl}(methyl)amino)pyridazin-3-yl]-2-fluoro-5-hydroxyphenyl}-N-methylprop-2-enamide]	149	606	104	47.5	348				
CN(c1ccc(-c2ccc(-c3cnn(C(F)F)c3)cc2O)nn1)[C@@H]1C[C@H]2CCC[C@@H](C1)N2 [compound 301, 2-(6-(((1R,3S,5S)-9-azabicyclo[3.3.1]nonan-3-yl)(methyl)amino)pyridazin-3-yl)-5-(l-(difluoromethy)-1H-pyrazol-4-yl)phenol]						10 to 100			
CNC(=O)/C=C/c1cc(O)c(-c2ccc(N(C)[C@H]3C[C@]4(C)CCC[C@](C)(C3)N4)nn2)cc1F [SMSM 70813, (2E)-3-[2-fluoro-5-hydroxy-4-(6-{methyl[(1R,3S,5S)-1,5-dimethyl-9-azabicyclo[3.3.1]nonan-3-yl]amino}pyridazin-3-yl)phenyl]-N-methylprop-2-enamide]	162	126	99.1	41	310				
CN(c1ccc(-c2cc(F)c(-c3ccn(CF)c(=O)c3)cc2O)nn1)[C@H]1C[C@]2(C)CCC[C@](C)(C1)N2 [SMSM 70819, 4-[2-fluoro-5-hydroxy-4-(6-{methyl[(1R,3S,5S)-1,5-dimethyl-9-azabicyclo[3.3.1]nonan-3-yl]amino}pyridazin-3-yl)phenyl]-1-(fluoromethyl)-1,2-dihydropyridin-2-one]	94.7	92.9	93.9	88	293				
COc1cc(-c2ccc(-c3ccc(N(C)[C@H]4C[C@]5(C)CC[C@](C)(C4)N5)nn3)c(O)c2)ncn1 [SMSM 70817, 2-(6-{[(1R,3S,5S)-1,5-dimethyl-8-azabicyclo[3.2.1]octan-3-yl](methyl)amino}pyridazin-3-yl)-5-(6-methoxypyrimidin-4-yl)phenol]	930	1160	707	941	2910				
2-(6-(((1R,3S,5S)-1,5-dimethyl-8-azabicyclo[3.2.1]octan-3-yl)(methyl)amino)pyridazin-3-yl)-5-(l-(methyl-d3)-1H-pyrazol-4-yl)phenol [compound 171]									10 to 100
Oc1cc(-c2cn[nH]c2)c(F)cc1-c1ccc(O[C@@H]2C[C@H]3CCC[C@@H](C2)N3)nn1 [compound 278, 2-(6-(((1R,3S,5S)-9-azabicyclo[3.3.1]nonan-3-yl)oxy)pyridazin-3-yl)-4-fluoro-5-(1H-pyrazol-4-yl)phenol]						10 to 100			
6-(6-(((1R,3S,5S)-8-azabicyclo[3.2.1]octan-3-yl)(methyl)amino)pyridazin-3-yl)quinolin-7-ol [compound 162]									251 to 500
CN(c1ccc(-c2cc(F)c(-c3cc(=O)n(C)cn3)cc2O)nn1)[C@H]1C[C@]2(C)CC[C@](C)(C1)N2 [SMSM 70816, 6-(4-(6-(((1R,3S,5S)-1,5-dimethyl-8-azabicyclo[3.2.1]octan-3-yl)(methyl)amino)pyridazin-3-yl)-2-fluoro-5-hydroxyphenyl)-3-methylpyrimidin-4(3H)-one]	225	634	215	171	737				
COc1cc(-c2ccc(-c3ccc(N(C)[C@H]4C[C@]5(C)CC[C@](C)(C4)N5)nn3)c(O)c2)cnn1 [SMSM 70812, 2-(6-{[(1R,3S,5S)-1,5-dimethyl-8-azabicyclo[3.2.1]octan-3-yl](methyl)amino}pyridazin-3-yl)-5-(6-methoxypyridazin-4-yl)phenol]	169	355	178	174	754				
CNC(=O)c1ccc2cc(-c3ccc(N(C)[C@H]4C[C@]5(C)CCC[C@](C)(C4)N5)nn3)c(O)cc2n1 [SMSM 70824, 7-hydroxy-N-methyl-6-(6-{methyl[(1R,3S,5S)-1,5-dimethyl-9-azabicyclo[3.3.1]nonan-3-yl]amino}pyridazin-3-yl)quinoline-2-carboxamide]	54	46.1	27.6	9.3	60.2				
CN(C)C(=O)c1cc2cc(-c3ccc(N(C)[C@@H]4C[C@H]5CCC[C@@H](C4)N5)nn3)c(O)cc2o1 [compound 298, 5-(6-(((1R,3S,5S)-9-azabicyclo[3.3.1]nonan-3-yl)(methyl)amino)pyridazin-3-yl)-6-hydroxy-N,N-dimethylbenzofuran-2-carboxamide]						10 to 100			
